Results: PMC8210154, “Tumor-selective, antigen-independent delivery of a pH sensitive peptide-topoisomerase inhibitor conjugate suppresses tumor growth without systemic toxicity” (NAR Cancer, 2021)
Positions count from the first letter of the chain named. “Also recorded” adds a separate entry of the source.

Assays:
HCT116 cells = experiment: In vitro cell killing, HCT116 cells; type: cell-based; conditions: Homo sapiens, HCT-116, data not shown
Experimental: (§1) Microplate-based short-term viability and synergy assays were performed as described previously ([18]).

[1] = molecular target: T1, TOP1 protein levels in HCT116 tumor tissue (Homo sapiens, UniProt P11387); experiment: TOP1 FACS assay, HCT116 xenografted tumor of dosed mice; type: in vivo; conditions: 2.5 μmol/kg for 4 days, 24 h post last dose
T1 construct: Xenograft tumors were excised, weighed, and minced then were digested to single cells; from tissue; host or cells: HCT116 xenograft tumors from athymic nude mice
T1 sequence (P11387 1-765): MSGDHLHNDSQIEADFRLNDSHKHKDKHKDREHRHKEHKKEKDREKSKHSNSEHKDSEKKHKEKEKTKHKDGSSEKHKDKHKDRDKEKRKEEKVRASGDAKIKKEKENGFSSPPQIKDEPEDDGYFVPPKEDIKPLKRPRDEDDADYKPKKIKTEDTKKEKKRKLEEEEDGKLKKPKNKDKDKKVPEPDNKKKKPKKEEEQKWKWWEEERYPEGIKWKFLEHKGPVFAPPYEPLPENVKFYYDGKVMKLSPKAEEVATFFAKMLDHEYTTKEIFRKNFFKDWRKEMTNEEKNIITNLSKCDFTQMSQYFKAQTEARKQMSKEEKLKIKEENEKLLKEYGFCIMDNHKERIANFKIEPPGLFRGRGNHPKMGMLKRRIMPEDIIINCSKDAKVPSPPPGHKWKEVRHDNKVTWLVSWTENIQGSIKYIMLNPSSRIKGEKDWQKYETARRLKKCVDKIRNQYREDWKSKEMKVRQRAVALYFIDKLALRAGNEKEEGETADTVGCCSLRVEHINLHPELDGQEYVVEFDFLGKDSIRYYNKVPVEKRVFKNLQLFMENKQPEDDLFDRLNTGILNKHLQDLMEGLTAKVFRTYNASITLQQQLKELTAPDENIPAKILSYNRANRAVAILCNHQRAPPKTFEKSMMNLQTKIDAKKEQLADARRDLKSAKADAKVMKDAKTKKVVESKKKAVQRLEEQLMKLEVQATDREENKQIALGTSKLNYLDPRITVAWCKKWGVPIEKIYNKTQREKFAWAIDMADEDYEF
Experimental: The vials capped and vortexed for 2 min.
Xenograft tumors were excised, weighed, and minced then were digested to single cells with an enzyme mix (Miltenyi; #130-095-929) for 40 min shaking at 37°C. Enzymes were inactivated by adding equal volume of DMEM^+. Digested cells were sequentially filtered through 70 μm then 40 μm filters and centrifuged at 700 rpm for 7 min at 4°C.
(§2) Tumor and bone marrow cells collected 24 h after dosing were permeabilized and fixed for 20 min on ice in the dark (Cytofix/Cytoperm Becton Dickinson; #554714), then washed 2× with Perm Wash. Cells were stained with rabbit anti-topoisomerase 1 antibody (Abcam; #109374) at 1 μg/ml on ice in the dark for 30 min and washed 2×, followed by staining with secondary antibody goat anti-rabbit IgG AF647 (Jackson ImmunoResearch; #111-605-144 diluted 1:1000) on ice in dark for 30 min. After a final 2× wash, the reduction of topoisomerase I (TOP1) protein levels was evaluated by collecting 10,000 (tumor) or 30,000 (BM) cells and determining the number of TOP1 positive stained cells on a BD Accuri™ flow cytometer.

MDA-MB-231 cells [2] = experiment: Synergy assay (Bliss) exatecan with talazoparib, MDA-MB-231 cells; type: cell-based, human; conditions: Bliss synergy analysis
MKN45 xenografts = experiment: MKN45 xenograft in nude mice; conditions: MKN45 flank model, 2.3 mg/kg (equimolar to 20 mg/kg CBX-12)
[3] = molecular target: T2, TOP1 protein levels in bone marrow (Mus musculus, UniProt Q04750); experiment: TOP1 FACS assay, bone marrow of dosed mice; type: in vivo; conditions: 2.5 μmol/kg for 4 days, 24 h post last dose
T2 construct: Mouse bone marrow cells were isolated as described above; from tissue; host or cells: bone marrow of athymic nude mice bearing HCT116 xenografts
T2 sequence (Q04750 1-767): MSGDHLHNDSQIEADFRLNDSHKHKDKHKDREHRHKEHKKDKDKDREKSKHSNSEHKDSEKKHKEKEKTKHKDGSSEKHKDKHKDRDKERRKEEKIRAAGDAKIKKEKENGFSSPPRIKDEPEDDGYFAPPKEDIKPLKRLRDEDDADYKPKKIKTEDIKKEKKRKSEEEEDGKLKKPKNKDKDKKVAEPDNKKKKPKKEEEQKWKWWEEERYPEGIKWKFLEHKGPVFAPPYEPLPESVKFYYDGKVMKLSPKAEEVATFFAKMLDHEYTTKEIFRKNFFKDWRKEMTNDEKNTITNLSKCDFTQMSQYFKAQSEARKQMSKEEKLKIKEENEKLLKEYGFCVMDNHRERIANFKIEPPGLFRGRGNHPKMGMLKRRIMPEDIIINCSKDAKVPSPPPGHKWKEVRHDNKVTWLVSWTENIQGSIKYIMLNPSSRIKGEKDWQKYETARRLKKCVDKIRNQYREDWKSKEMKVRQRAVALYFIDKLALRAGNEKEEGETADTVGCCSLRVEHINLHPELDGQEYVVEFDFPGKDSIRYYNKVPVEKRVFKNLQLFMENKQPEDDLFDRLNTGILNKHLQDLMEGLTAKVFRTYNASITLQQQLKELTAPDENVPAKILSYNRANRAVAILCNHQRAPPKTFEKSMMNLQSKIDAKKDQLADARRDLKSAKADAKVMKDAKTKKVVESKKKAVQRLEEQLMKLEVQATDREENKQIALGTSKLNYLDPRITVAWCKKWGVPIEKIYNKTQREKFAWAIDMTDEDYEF
Experimental: Mouse bone marrow cells were isolated as described above.
as §2

[4] = Toxicity in mice (bone marrow cell counts, body weight, stomachs)
Experimental: Following tumor collection, mice were euthanized by cervical dislocation under anesthesia in accordance with the American Veterinary Medical Association (AVMA) Guidelines for the Euthanasia of Animals. Femurs were removed, and bone marrow was extruded into 50 mL conical tubes by flushing the bones with a 23-gauge needle fitted on a 5cc syringe containing PBS + 2% fetal bovine serum (FBS). Bone marrow was homogenized by gentle pipetting and filtered through 100 μm nylon mesh filters and cells were pelleted by centrifugation at 1200 rpm for 5 min at 4°C. Red blood cells were lysed with 3 mL of lysis buffer for 2 min at room temperature. PBS was added to a volume of 25 mL and cells were re-pelleted by centrifugation as described above. Cell pellets were suspended in 5 mL of PBS and cell count was assessed by trypan blue exclusion on a TC-20 cell counter (BioRad).

[5] = test system: γH2AX in HCT116 flank tumors; experiment: γH2AX immunofluorescence assay in HCT116 flank tumors; type: in vivo, mice; conditions: 1.15 mg/kg exatecan, P < 0.001
Experimental: Tumors were collected as detailed above, and FFPE tumor slides were created for IF staining. Antigen retrieval was performed using a heat-induced epitope retrieval (HIER) method, with TRIS-EDTA pH 9.0. Staining with primary antibody (mouse anti-human γH2AX; 1:500, Invitrogen) followed by secondary antibody (Goat anti-mouse Ax594; 1:1000, Invitrogen) was then performed. Images were obtained with a Keyence imager. Data analysis was performed in ImageJ and CellProfiler ([16]). Raincloud plots and heatmap were generated in R version 4.0.3 ([17]). Statistical analysis for γH2AX expression was performed using Kruskal–Wallis test, followed by Dunn's multiple comparison test (GraphPad Prism 9.1.0).

[6] = Toxicity in rats (body weight, duodenum H&E histology); type: in vivo
Description: Duodenal tissue samples were fixed in 10% neutral buffered formalin, processed and embedded in paraffin. Tissue cross sections (5 μm) were mounted on positively charged microscope slides and stained with hematoxylin and eosin (H&E) (PolyScientific R&D, New York). Images were taken of tissue sections by standard light microscopy using an EVOS FL Cell Imaging System (Life Technologies) for histomorphological evaluation of intestinal inflammation.

[7] = molecular target: T3, TOP1 protein levels in rat bone marrow cells (Rattus norvegicus, UniProt Q9WUL0); experiment: TOP1 FACS assay, rat bone marrow cells dosed ex vivo; type: cell-based; conditions: rat bone marrow cells in vitro, 24 h; read-out: IC50 for TOP1 protein levels
T3 construct: from tissue; host or cells: rat bone marrow cells, dosed ex vivo
T3 sequence (Q9WUL0 1-767): T2 sequence (Q04750 1-767) with E77D, R90K, L141P, S167L, P197A, S239G, R665K
Experimental: Naïve Sprague-Dawley rat bone marrow cells were plated at 1 × 10^6/ml in 2 mL of RPMI^+ in six-well plates. Cells were allowed to incubate for 3 h at 37°C before compound addition. […] Cells were harvested, washed with PBS and counted.
as §2

[8] = molecular target: T4, TOP1 protein levels in HCT116 cells (Homo sapiens, UniProt P11387); experiment: TOP1 FACS assay, HCT116 cells dosed in vitro; type: cell-based; conditions: 24 h, read-out: IC50 for TOP1 protein levels
T4 construct: endogenous in cells; host or cells: HCT116 cells
T4 sequence (P11387 1-765): T1 sequence (P11387 1-765)
Experimental: HCT116 cells were plated at 2.5 × 10^5/mL in 2 mL DMEM^+ in six-well plates. Cells were allowed to attach overnight in 37°C incubator before compound addition. […] Cells were scraped, washed with PBS and counted.
as §2

MDA-MB-231 cells [9] = experiment: Short-term viability assay, MDA-MB-231 cells; type: cell-based; conditions: Homo sapiens
Experimental: as §1

In the case of `CC[C@@]1(O)C(=O)OCc2c1cc1n(c2=O)Cc2c-1nc1cc(F)c(C)c3c1c2[C@@H](N)CC3` [exatecan], the IC50 (HCT116 cells) is reported as 0.2 nM, the “TOP1 protein levels in HCT116 flank tumor tissue” value [1] is reported as “decreased” and the “interaction when combined with talazoparib” value (MDA-MB-231 cells [2]) is reported as “robust synergy”. The tolerability (MKN45 xenografts) was “not tolerated and was lethal in all animals”, the “TOP1 protein levels in bone marrow” value [3] was “decreased” and the body weight ([4]; mice (Figure 3B)) was “significant and unrecoverable body weight reductions”. The “bone marrow cell counts” value ([4]; mice, equimolar doses) was “drastic bone marrow suppression”, the “γH2AX expression after second cycle compared to first cycle” value [5] was “significant higher γH2AX expression; also recorded: significantly higher γH2AX expression” and the “GI toxicity microscopically (H&E of duodenum)” value ([6]; rat, in vivo) was “significant GI toxicity”. For the same compound, the body weight ([6]; rats (Figure 3C)) was “significant and unrecoverable body weight reductions”, the DC50 [7] was 27.3 nM and the DC50 [8] was 24.8 nM. It also gave an IC50 (MDA-MB-231 cells [9]) of 0.21 nM.
